Measurements from ChEMBL document CHEMBL2169886 (J Med Chem, 2012).

Tests used:
clinical [1] = settings: human, plasma
clinical [2] = settings: human, in vivo, po, 30 mg
Rattus norvegicus = species: Rattus norvegicus; settings: in vivo, po, BLD = below limit of detection
in vivo [3] = settings: rat
in vivo [4] = settings: rat, po
physchem = settings: buffer, pH 7.4

Row | SMILES | AUC (clinical [1]) [ng·h/mL] | Cmax at 1.2 h (clinical [2]) [ng/mL] | F (Rattus norvegicus) | Vd (in vivo [3]) [L/kg] | bioavailability (in vivo [4]) [%] | logD (physchem)
1 | N[C@@H]1CCN(c2cnc3nnn(Cc4ccc5ncccc5c4)c3n2)C1 |  |  | BLD | 3.6 |  | 
2 | c1cnc2ccc(Cn3nnc4ncc(-c5cnn(C6CCNCC6)c5)nc43)cc2c1 |  |  | BLD | 27 |  | 
3 | Nc1cnc2nnn(Cc3ccc4ncccc4c3)c2n1 |  |  |  | 0.95 | 75 | 1.23

Continued, values first:

Row | AUC (clinical [1]) [ng·h/mL] | Cmax at 1.2 h (clinical [2]) [ng/mL] | F (Rattus norvegicus) | Vd (in vivo [3]) [L/kg] | bioavailability (in vivo [4]) [%] | logD (physchem) | SMILES
4 | 810 | 240 |  |  |  |  | CS(=O)(=O)O.OCCn1cc(-c2cnc3nnn(Cc4ccc5ncccc5c4)c3n2)cn1
5 |  |  |  | 1.6 | 71 | 1.38 | OCCn1cc(-c2cnc3nnn(Cc4ccc5ncccc5c4)c3n2)cn1 [PF-04217903]
